Data as given in ChEMBL document CHEMBL1140624, “Improved biochemical strategies for targeted delivery of taxoids” (Bioorg Med Chem, 2007).
The source made the active and inactive calls. The calls are words filed in the database; no cut-off is given here.

What was measured:
MCF7 [1] = test: Cytotoxicity against ERalpha positive human MCF7 cells; type: functional, cell-based
[2] = Cytotoxicity against human IGROV cells; type: functional, cell-based
MCF7 [3] = test: Cytotoxicity against human MCF7 cells; type: functional, cell-based
MDA-MB-231 = test: Cytotoxicity against ERalpha negative human MDA-MB-231 cells; type: functional, cell-based
[4] = test system: M19 melanoma cell line (human); test: Cytotoxicity against human M19 melanoma cells
A498 = test: Cytotoxicity against human A498 cells; type: functional, cell-based
[5] = Cytotoxicity against human H226 cells; type: functional, cell-based; details: NCI-H226
PC-3 = test: Cytotoxicity against ERbeta positive human PC3 cells; type: functional, cell-based
EVSA-T = test: Cytotoxicity against human EVSA-T cells; type: functional, cell-based
WiDr = test: Cytotoxicity against human WIDR cells; type: functional, cell-based
LoVo [6] = test: Cytotoxicity against human LoVo cells in presence of beta-glucuronidase; type: functional, cell-based
LoVo [7] = test: Ratio of IC50 of drug for human LoVo cells to IC50 of taxol for human LoVo cells; type: functional
A2780 = test: Cytotoxicity against ERbeta negative human A2780 cells; type: functional, cell-based
[8] = Half life in DTT buffer assessed as taxol release; type: ADME
[9] = Half life in presence of 10 uM beta-glucuronidase assessed as taxol release at 100 uM; type: ADME
OVCAR-3 [10] = test: Cytotoxicity against human OVCAR-3 cells; type: functional, cell-based
OVCAR-3 [11] = test: Cytotoxicity against human OVCAR-3 cells in presence of beta-glucuronidase; type: functional, cell-based

Row | Structure (SMILES) | IC50 (MCF7 [1]) [µM] | IC50 [2] [mg/L] | IC50 (MCF7 [3]) [mg/L] | IC50 (MDA-MB-231) [µM] | IC50 [4] [mg/L] | IC50 (A498) [mg/L] | IC50 [5] [mg/L] | IC50 (PC-3) [µM] | IC50 (EVSA-T) [mg/L] | IC50 (WiDr) [mg/L] | further results
1 | CC(=O)O[C@H]1C(=O)[C@@]2(C)[C@H]([C@H](OC(=O)c3ccccc3)[C@]3(O)C[C@H](OC(=O)[C@H](OC(=O)N(C)CCNC(=O)[C@H](CCCCN)NC(=O)[C@H](Cc4ccccc4)NC(=O)[C@H](N)C(C)C)[C@@H](NC(=O)c4ccccc4)c4ccccc4)C(C)=C1C3(C)C)[C@]1(OC(C)=O)CO[C@@H]1C[C@@H]2O.Cl | 0.0049 | 0.045 | > 0.063 | 0.0045 | 0.047 | > 0.063 | 0.048 | 0.077 | > 0.063 | 0.047 | –
2 | Cn1c(=O)oc2ccc([N+](=O)[O-])cc21 | – | – | – | – | – | – | – | – | – | – | Activity (LoVo [6]): inactive; Ratio IC50 (LoVo [7]): 3000
3 | CC(=O)O[C@H]1C(=O)[C@@]2(C)[C@H]([C@H](OC(=O)c3ccccc3)[C@]3(O)C[C@H](OC(=O)[C@H](OC(=O)N(C)c4cc([N+](=O)[O-])ccc4O[C@@H]4O[C@H](C(=O)O)[C@@H](O)[C@H](O)[C@H]4O)[C@@H](NC(=O)c4ccccc4)c4ccccc4)C(C)=C1C3(C)C)[C@]1(OC(C)=O)CO[C@@H]1C[C@@H]2O | – | – | – | – | – | – | – | – | – | – | IC50 (LoVo [6]): 0.1 µM; Ratio IC50 (LoVo [7]): 722
4 | CC(=O)O[C@H]1C(=O)[C@@]2(C)[C@H]([C@H](OC(=O)c3ccccc3)[C@]3(O)C[C@H](OC(=O)[C@H](OC(=O)OCc4ccc(NC(=O)[C@H](CCCCN)NC(=O)[C@H](CC(C)C)NC(=O)[C@H](N)C(C)C)cc4)[C@@H](NC(=O)c4ccccc4)c4ccccc4)C(C)=C1C3(C)C)[C@]1(OC(C)=O)CO[C@@H]1C[C@@H]2O.Cl | – | 0.027 | 0.0092 | – | 0.02 | > 0.06 | 0.016 | – | 0.0093 | 0.011 | –
5 | CC(=O)O[C@H]1C(=O)[C@@]2(C)[C@H]([C@H](OC(=O)c3ccccc3)[C@]3(O)C[C@H](OC(=O)[C@H](OC(=O)N(C)CCN(C)C(=O)[C@H](CCCCN)NC(=O)[C@H](CC(C)C)NC(=O)[C@H](N)C(C)C)[C@@H](NC(=O)c4ccccc4)c4ccccc4)C(C)=C1C3(C)C)[C@]1(OC(C)=O)CO[C@@H]1C[C@@H]2O.Cl | 0.0049 | 0.026 | 0.0069 | 0.0045 | 0.024 | 0.045 | 0.025 | 0.077 | 0.0052 | 0.011 | –
6 | CC(=O)O[C@H]1C(=O)[C@@]2(C)[C@H]([C@H](OC(=O)c3ccccc3)[C@]3(O)C[C@H](OC(=O)[C@@H](OC(=O)/C=C/C[C@@H]4C[C@H]5[C@@H]6CCc7cc(O)ccc7[C@H]6CC[C@]5(C)[C@H]4O)[C@@H](NC(=O)c4ccccc4)c4ccccc4)C(C)=C1C3(C)C)[C@]1(OC(C)=O)CO[C@@H]1C[C@@H]2O | 1.6 | – | – | 2.2 | – | – | – | 0.12 | – | – | IC50 (A2780): 8.3 µM
7 | CC(=O)O[C@H]1C(=O)[C@@]2(C)[C@H]([C@H](OC(=O)c3ccccc3)[C@]3(O)C[C@H](OC(=O)[C@H](OC(=O)N(C)CCN(C)C(=O)[C@H](CCCCN)NC(=O)[C@H](Cc4ccccc4)NC(=O)[C@@H](C)N)[C@@H](NC(=O)c4ccccc4)c4ccccc4)C(C)=C1C3(C)C)[C@]1(OC(C)=O)CO[C@@H]1C[C@@H]2O.Cl | 0.0049 | 0.011 | 0.0066 | 0.0045 | 0.017 | 0.038 | 0.021 | 0.077 | 0.0072 | 0.01 | –
8 | CC(=O)O[C@H]1C(=O)[C@@]2(C)[C@H]([C@H](OC(=O)c3ccccc3)[C@]3(O)C[C@H](OC(=O)[C@H](OC(=O)C(C)(C)CCSSCC(NC(=O)CCC(N)C(=O)O)C(=O)NCC(=O)O)[C@@H](NC(=O)c4ccccc4)c4ccccc4)C(C)=C1C3(C)C)[C@]1(OC(C)=O)CO[C@@H]1C[C@@H]2O (stereo partly drawn) | – | – | – | – | – | – | – | – | – | – | t1/2 [8]: 1 h
9 | CC(=O)O[C@H]1C(=O)[C@@]2(C)[C@H]([C@H](OC(=O)c3ccccc3)[C@]3(O)C[C@H](OC(=O)[C@H](OC(=O)/C=C/C[C@@H]4C[C@H]5[C@@H]6CCc7cc(O)ccc7[C@H]6CC[C@]5(C)[C@H]4O)[C@@H](NC(=O)c4ccccc4)c4ccccc4)C(C)=C1C3(C)C)[C@]1(OC(C)=O)CO[C@@H]1C[C@@H]2O | 0.039 | – | – | 0.022 | – | – | – | 0.073 | – | – | IC50 (A2780): 0.18 µM
10 | CC(=O)O[C@H]1C(=O)[C@@]2(C)[C@H]([C@H](OC(=O)c3ccccc3)[C@]3(O)C[C@H](OC(=O)[C@H](OC(=O)CC(C)(C)CNC(=O)O[C@@H]4O[C@H](C(=O)[O-])[C@@H](O)[C@H](O)[C@H]4O)[C@@H](NC(=O)c4ccccc4)c4ccccc4)C(C)=C1C3(C)C)[C@]1(OC(C)=O)CO[C@@H]1C[C@@H]2O.[Na+] | – | – | – | – | – | – | – | – | – | – | t1/2 [9]: 2 h; IC50 (OVCAR-3 [10]): 0.02 µM; IC50 (OVCAR-3 [11]): 0.0006 µM
